Experimental data reported in patent US10479780B2, “Aminopyrazole derivatives” (Chugai Seiyaku Kabushiki Kaisha, priority 2015, dated 2019).
pIC50: −log10 of the molar value.

Columns and labels:
Type in all cases: biochemical
human Src enzyme = target: T1, human Src enzyme (Homo sapiens, UniProt P12931); experiment: Src enzyme inhibitory activity (time-resolved fluorometry, biotinylated peptide phosphorylation); conditions: biotinylated peptide phosphorylation, read-out: SRC_IC50
T1 construct: purchased Carna Biosciences, Inc. 08-173
T1 sequence (P12931 whole entry): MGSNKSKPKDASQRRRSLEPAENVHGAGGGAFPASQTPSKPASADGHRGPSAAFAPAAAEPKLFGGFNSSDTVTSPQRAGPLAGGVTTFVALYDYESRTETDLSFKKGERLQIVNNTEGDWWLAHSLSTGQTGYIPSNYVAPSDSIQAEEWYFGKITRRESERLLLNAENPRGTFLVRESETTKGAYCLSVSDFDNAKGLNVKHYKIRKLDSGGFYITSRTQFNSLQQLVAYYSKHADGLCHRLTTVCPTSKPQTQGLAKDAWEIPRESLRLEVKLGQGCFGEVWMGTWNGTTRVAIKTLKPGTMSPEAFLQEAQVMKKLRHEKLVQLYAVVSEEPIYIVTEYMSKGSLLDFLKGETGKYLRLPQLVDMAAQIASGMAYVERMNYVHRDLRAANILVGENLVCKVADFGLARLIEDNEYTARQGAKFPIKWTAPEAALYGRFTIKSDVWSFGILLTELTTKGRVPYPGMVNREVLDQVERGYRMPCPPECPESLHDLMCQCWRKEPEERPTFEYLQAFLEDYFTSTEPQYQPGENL
Procedure, shortened: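 Compounds were tested for blocking tyrosine phosphorylation of a biotinylated peptide substrate by recombinant human Src. Phosphorylated product was quantified by time-resolved fluorometry using europium cryptate and XL665 conjugates, and IC50 was calculated against the compound-free control.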

human Lck enzyme = target: T2, human Lck enzyme (Homo sapiens, UniProt P06239); experiment: Lck enzyme inhibitory activity (time-resolved fluorometry, biotinylated peptide phosphorylation); conditions: biotinylated peptide phosphorylation, read-out: LCK_IC50
T2 construct: purchased Carna Biosciences, Inc. 08-170
T2 sequence (P06239 whole entry): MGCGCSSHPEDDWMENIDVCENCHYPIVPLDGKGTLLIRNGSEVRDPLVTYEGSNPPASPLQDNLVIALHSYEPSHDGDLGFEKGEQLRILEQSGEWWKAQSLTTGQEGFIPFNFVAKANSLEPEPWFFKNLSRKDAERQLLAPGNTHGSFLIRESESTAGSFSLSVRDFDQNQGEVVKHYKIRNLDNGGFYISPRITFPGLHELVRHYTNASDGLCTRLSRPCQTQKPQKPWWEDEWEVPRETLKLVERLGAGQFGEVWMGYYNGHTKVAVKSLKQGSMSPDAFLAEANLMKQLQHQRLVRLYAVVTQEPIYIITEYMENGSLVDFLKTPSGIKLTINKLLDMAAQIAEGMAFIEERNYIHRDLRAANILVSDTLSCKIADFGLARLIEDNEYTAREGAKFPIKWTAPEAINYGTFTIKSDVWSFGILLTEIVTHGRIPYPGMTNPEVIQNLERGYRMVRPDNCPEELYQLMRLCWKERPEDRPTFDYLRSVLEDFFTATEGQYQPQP
Procedure, shortened: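 Readout pairs a europium cryptate-labelled anti-phosphotyrosine antibody with XL665-streptavidin, measured by time-resolved fluorescence. IC50 derived from percent inhibition against untreated controls.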

human Yes1 enzyme = target: T3, human Yes1 enzyme (Homo sapiens, UniProt P07947); experiment: Yes1 enzyme inhibitory activity (time-resolved fluorometry, biotinylated peptide phosphorylation); conditions: biotinylated peptide phosphorylation, read-out: YES_IC50
T3 construct: made in house
T3 sequence (P07947 whole entry): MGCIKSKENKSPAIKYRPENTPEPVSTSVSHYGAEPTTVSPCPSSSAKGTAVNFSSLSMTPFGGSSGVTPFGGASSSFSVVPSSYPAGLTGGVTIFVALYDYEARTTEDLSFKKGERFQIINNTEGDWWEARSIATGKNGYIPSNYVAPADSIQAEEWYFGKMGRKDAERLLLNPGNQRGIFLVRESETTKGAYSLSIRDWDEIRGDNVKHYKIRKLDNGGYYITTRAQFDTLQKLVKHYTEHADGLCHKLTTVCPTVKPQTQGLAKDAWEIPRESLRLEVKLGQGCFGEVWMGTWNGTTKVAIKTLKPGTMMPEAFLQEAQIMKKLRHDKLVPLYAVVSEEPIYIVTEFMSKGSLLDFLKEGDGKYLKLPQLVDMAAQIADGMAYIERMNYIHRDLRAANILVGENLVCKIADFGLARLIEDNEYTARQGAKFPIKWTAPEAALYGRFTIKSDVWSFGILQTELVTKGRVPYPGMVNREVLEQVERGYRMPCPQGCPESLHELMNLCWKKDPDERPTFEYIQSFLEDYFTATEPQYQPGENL
Procedure, shortened: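 Inhibition was expressed against a compound-free control to give IC50, using TR-FRET read-out (Eu-cryptate anti-pTyr antibody, streptavidin-XL665).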

| pIC50 (human Src enzyme) | pIC50 (human Lck enzyme) | pIC50 (human Yes1 enzyme) | SMILES |
| --- | --- | --- | --- |
| 7.77 | 8.24 | 9.23 | COc1cc2cc(C(=O)c3cnn(-c4cnc(Oc5ccccc5F)cc4C)c3N)[nH]c2cc1NS(=O)(=O)CC(=O)N1CCOCC1 [Example 4-10-016, N-[2-[5-amino-1-[6-(2-fluorophenoxy)-4-methylpyridin-3-yl]pyrazole-4-carbonyl]-5-methoxy-1H-indol-6-yl]-2-morpholin-4-yl-2-oxoethanesulfonamide] |
| 7.49 | 7.96 | 9.03 | COc1cc2cc(C(=O)c3cnn(-c4cnc(Oc5c(F)cccc5F)cc4C)c3N)[nH]c2cc1NS(=O)(=O)CC(=O)N1CCCC1 [Example 4-10-017, N-[2-[5-amino-1-[6-(2,6-difluorophenoxy)-4-methylpyridin-3-yl]pyrazole-4-carbonyl]-5-methoxy-1H-indol-6-yl]-2-oxo-2-pyrrolidin-1-ylethanesulfonamide] |
| 7.48 | 8.25 | 8.82 | COc1cc2cc(C(=O)c3cnn(-c4cnc(Oc5ccccc5F)cc4C)c3N)[nH]c2cc1NC(C)=O [Example 4-11-001, N-{2-{5-amino-1-[6-(2-fluorophenoxy)-4-methylpyridin-3-yl]pyrazole-4-carbonyl}-5-methoxy-1H-indol-6-yl}acetamide] |
| 6.85 | 7.35 | 8.54 | COc1cc2cc(C(=O)c3cnn(-c4cnc(Oc5ccccc5F)cc4C)c3N)[nH]c2cc1NS(=O)(=O)N1CCOCC1 [Example 4-12-001, N-{2-{5-amino-1-[6-(2-fluorophenoxy)-4-methylpyridin-3-yl]pyrazole-4-carbonyl}-5-methoxy-1H-indol-6-yl}morpholine-4-sulfonamide] |
| 7.40 | 8.10 | 8.49 | COc1cc2cc(C(=O)c3cnn(-c4cnc(Oc5ccccc5F)cc4C)c3N)[nH]c2cc1NC(=O)N1CCOCC1 [Example 4-12-002, N-[2-[5-amino-1-[6-(2-fluorophenoxy)-4-methylpyridin-3-yl]pyrazole-4-carbonyl]-5-methoxy-1H-indol-6-yl]morpholine-4-carboxamide] |
| 7.35 | 7.85 | 9.27 | COc1cc2cc(C(=O)c3cnn(-c4ccc(Oc5ccccc5F)cc4C)c3N)[nH]c2cc1NS(=O)(=O)N1CCOCC1 [Example 4-12-003, N-[2-[5-amino-1-[4-(2-fluorophenoxy)-2-methylphenyl]pyrazole-4-carbonyl]-5-methoxy-1H-indol-6-yl]morpholine-4-sulfonamide] |
| 7.12 | 7.59 | 8.62 | COc1cc2cc(C(=O)c3cnn(-c4cnc(Oc5ccccc5F)cc4C)c3N)[nH]c2cc1NS(=O)(=O)CCCF [Example 4-13-001, N-{2-{5-amino-1-[6-(2-fluorophenoxy)-4-methylpyridin-3-yl]pyrazole-4-carbonyl}-5-methoxy-1H-indol-6-yl}-3-fluoropropane-1-sulfonamide] |
| 7.57 | 7.70 | 8.62 | COc1cc2cc(C(=O)c3cnn(-c4ccc(Oc5ccccc5F)cc4C)c3N)[nH]c2cc1NS(=O)(=O)CCCF [Example 4-13-002, N-[2-[5-amino-1-[4-(2-fluorophenoxy)-2-methylphenyl]pyrazole-4-carbonyl]-5-methoxy-1H-indol-6-yl]-3-fluoropropane-1-sulfonamide] |
| 7.68 | 8.24 | 8.92 | COc1cc2cc(C(=O)c3cnn(-c4cnc(Oc5ccccc5F)cc4C)c3N)[nH]c2cc1N1CCCS1(=O)=O [Example 4-14-001, {5-amino-1-[6-(2-fluorophenoxy)-4-methylpyridin-3-yl]pyrazol-4-yl}-[6-(1,1-dioxo-1,2-thiazolidin-2-yl)-5-methoxy-1H-indol-2-yl]methanone] |
| 8.06 | 8.25 | 8.85 | COc1cc2cc(C(=O)c3cnn(-c4ccc(Oc5ccccc5F)cc4C)c3N)[nH]c2cc1N1CCCS1(=O)=O [Example 4-14-002, [5-amino-1-[4-(2-fluorophenoxy)-2-methylphenyl]pyrazol-4-yl]-[6-(1,1-dioxo-1,2-thiazolidin-2-yl)-5-methoxy-1H-indol-2-yl]methanone] |
| 7.74 | 8.00 | 8.96 | Cc1cc2cc(C(=O)c3cnn(-c4cnc(Oc5ccccc5F)cc4C)c3N)[nH]c2cc1NS(=O)(=O)CC(=O)N1CCOCC1 [Example 4-15-001, N-(2-(5-amino-1-(6-(2-fluorophenoxy)-4-methylpyridin-3-yl)-1H-pyrazole-4-carbonyl)-5-methyl-1H-indol-6-yl)-2-morpholino-2-oxoethanesulfonamide] |
| 7.80 | 8.35 | 9.21 | Cc1cc2cc(C(=O)c3cnn(-c4cnc(Oc5ccccc5F)cc4C)c3N)[nH]c2cc1N1CCCS1(=O)=O [Example 4-16-001, {5-amino-1-[6-(2-fluorophenoxy)-4-methylpyridin-3-yl]pyrazol-4-yl}-[6-(1,1-dioxo-1,2-thiazolidin-2-yl)-5-methyl-1H-indol-2-yl]methanone] |
| 7.59 | 7.92 | 8.35 | CC(=O)N1CCC(c2cc3[nH]c(C(=O)c4cnn(-c5cnc(Oc6c(F)cccc6F)cc5C)c4N)cc3cc2OCC(F)F)CC1 [Example 4-17-001, 1-{4-{2-{5-amino-1-{6-(2,6-difluorophenoxy)-4-methylpyridin-3-yl}pyrazole-4-carbonyl}-5-(2,2-difluoroethoxy)-1H-indol-6-yl}piperidin-1-yl}ethanone] |
| 7.37 | 7.74 | 8.00 | CC(=O)N1CCC(c2cc3[nH]c(C(=O)c4cnn(-c5ccc(Oc6ccccc6F)cc5C)c4N)cc3cc2OC(F)F)CC1 [Example 4-17-002, 1-[4-[2-[5-amino-1-[4-(2-fluorophenoxy)-2-methylphenyl]pyrazole-4-carbonyl]-5-(difluoromethoxy)-1H-indol-6-yl]piperidin-1-yl]ethanone] |
| 7.64 | 7.70 | 8.13 | Cc1cc(Oc2ccccc2F)ccc1-n1ncc(C(=O)c2cc3cc(OC(F)F)c(C4CCN(S(C)(=O)=O)CC4)cc3[nH]2)c1N [Example 4-17-003, [5-amino-1-[4-(2-fluorophenoxy)-2-methylphenyl]pyrazol-4-yl]-[5-(difluoromethoxy)-6-(1-methylsulfonylpiperidin-4-yl)-1H-indol-2-yl]methanone] |
| 7.66 | 7.77 | 8.02 | Cc1cc(Oc2ccccc2F)ccc1-n1ncc(C(=O)c2cc3cc(OC(F)F)c(C4CCN(S(=O)(=O)C5CC5)CC4)cc3[nH]2)c1N [Example 4-17-004, [5-amino-1-[4-(2-fluorophenoxy)-2-methylphenyl]pyrazol-4-yl]-[6-(1-cyclopropylsulfonylpiperidin-4-yl)-5-(difluoromethoxy)-1H-indol-2-yl]methanone] |
| 7.44 | 7.77 | 8.54 | CC(=O)N1CCC(c2cc3[nH]c(C(=O)c4cnn(-c5c(C)cc(Oc6ccccc6F)cc5F)c4N)cc3cc2OC(F)F)CC1 [Example 4-17-005, 1-[4-[2-[5-amino-1-[2-fluoro-4-(2-fluorophenoxy)-6-methylphenyl]pyrazole-4-carbonyl]-5-(difluoromethoxy)-1H-indol-6-yl]piperidin-1-yl]ethanone] |
| 7.60 | 7.89 | 8.47 | Cc1cc(Oc2ccccc2F)cc(F)c1-n1ncc(C(=O)c2cc3cc(OC(F)F)c(C4CCN(S(C)(=O)=O)CC4)cc3[nH]2)c1N [Example 4-17-006, [5-amino-1-[2-fluoro-4-(2-fluorophenoxy)-6-methylphenyl]pyrazol-4-yl]-[5-(difluoromethoxy)-6-(1-methylsulfonylpiperidin-4-yl)-1H-indol-2-yl]methanone] |
| 7.66 | 7.92 | 8.41 | Cc1cc(Oc2ccccc2F)cc(F)c1-n1ncc(C(=O)c2cc3cc(OC(F)F)c(C4CCN(S(=O)(=O)C5CC5)CC4)cc3[nH]2)c1N [Example 4-17-007, [5-amino-1-[2-fluoro-4-(2-fluorophenoxy)-6-methylphenyl]pyrazol-4-yl]-[6-(1-cyclopropylsulfonylpiperidin-4-yl)-5-(difluoromethoxy)-1H-indol-2-yl]methanone] |
| 7.89 | 8.26 | 8.80 | CC(=O)N1CCC(c2cc3[nH]c(C(=O)c4cnn(-c5cnc(Oc6ccccc6F)cc5C)c4N)cc3cc2OC(F)F)CC1 [Example 4-17-008, 1-[4-[2-[5-amino-1-[6-(2-fluorophenoxy)-4-methylpyridin-3-yl]pyrazole-4-carbonyl]-5-(difluoromethoxy)-1H-indol-6-yl]piperidin-1-yl]ethanone] |
| 7.85 | 8.31 | 8.74 | Cc1cc(Oc2ccccc2F)ncc1-n1ncc(C(=O)c2cc3cc(OC(F)F)c(C4CCN(S(C)(=O)=O)CC4)cc3[nH]2)c1N [Example 4-17-009, [5-amino-1-[6-(2-fluorophenoxy)-4-methylpyridin-3-yl]pyrazol-4-yl]-[5-(difluoromethoxy)-6-(1-methylsulfonylpiperidin-4-yl)-1H-indol-2-yl]methanone] |
| 7.00 | 7.35 | 8.70 | Cc1cc(Oc2ccccc2F)ncc1-n1ncc(C(=O)c2cc3cc(OC(F)F)c(C4CCN(S(=O)(=O)C5CC5)CC4)cc3[nH]2)c1N [Example 4-17-010, [5-amino-1-[6-(2-fluorophenoxy)-4-methylpyridin-3-yl]pyrazol-4-yl]-[6-(1-cyclopropylsulfonylpiperidin-4-yl)-5-(difluoromethoxy)-1H-indol-2-yl]methanone] |
